Measured values as given in ChEMBL document CHEMBL1139605, “Novel ketal ligands for the glucocorticoid receptor: in vitro and in vivo activity” (Bioorg Med Chem Lett, 2005).
Values belong to the compound of their own block, whether it stands above or below them.

Assays:
Glucocorticoid receptor [1] = molecular target: T1, Glucocorticoid receptor (Homo sapiens, UniProt P04150); assay: Inhibition of human glucocorticoid receptor alpha isoform
T1 sequence (P04150 whole entry): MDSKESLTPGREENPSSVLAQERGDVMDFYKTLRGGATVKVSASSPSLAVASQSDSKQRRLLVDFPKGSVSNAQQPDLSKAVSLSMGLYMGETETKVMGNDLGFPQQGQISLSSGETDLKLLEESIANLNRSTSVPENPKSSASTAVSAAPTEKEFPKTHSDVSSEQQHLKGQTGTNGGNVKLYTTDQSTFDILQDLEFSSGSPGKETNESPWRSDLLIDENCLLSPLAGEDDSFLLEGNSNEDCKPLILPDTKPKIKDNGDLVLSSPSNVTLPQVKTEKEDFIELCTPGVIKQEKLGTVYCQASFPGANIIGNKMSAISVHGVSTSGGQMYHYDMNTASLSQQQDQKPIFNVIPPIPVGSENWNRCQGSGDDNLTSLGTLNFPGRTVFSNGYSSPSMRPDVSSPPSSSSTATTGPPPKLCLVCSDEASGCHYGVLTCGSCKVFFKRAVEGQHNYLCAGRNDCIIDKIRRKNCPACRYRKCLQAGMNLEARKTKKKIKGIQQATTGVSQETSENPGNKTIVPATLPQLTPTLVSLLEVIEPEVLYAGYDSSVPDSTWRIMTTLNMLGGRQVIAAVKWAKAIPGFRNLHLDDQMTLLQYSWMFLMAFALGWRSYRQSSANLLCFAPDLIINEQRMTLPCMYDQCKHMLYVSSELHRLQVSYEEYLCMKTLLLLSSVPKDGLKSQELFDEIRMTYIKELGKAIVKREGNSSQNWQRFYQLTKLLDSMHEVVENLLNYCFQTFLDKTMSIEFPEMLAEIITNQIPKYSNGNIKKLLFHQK

A549 [2] = assay: Effective concentration for inhibition of interleukin-6 in human A549 lung carcinoma cell line using 59% radiolabeled Dexamethasone; format: functional, cell-based
Mus musculus [3] = organism: Mus musculus; assay: Effective concentration required for inhibition of interleukin-6 in mouse thioglycolate-elicited peritoneal exudate cell line using 77% radiolabeled Dexamethasone; format: functional
A549 [4] = assay: Effective concentration for inhibition of interleukin-6 in human A549 lung carcinoma cell line using 58% radiolabeled Dexamethasone; format: functional, cell-based
Mus musculus [5] = organism: Mus musculus; assay: Effective concentration required for inhibition of interleukin-6 in mouse thioglycolate-elicited peritoneal exudate cell line using 72% radiolabeled Dexamethasone; format: functional
A549 [6] = assay: Effective concentration for inhibition of interleukin-6 in human A549 lung carcinoma cell line using 44% radiolabeled Dexamethasone; format: functional, cell-based
Mus musculus [7] = assay: Inhibition of LPS induced TNF-alpha secretion in mouse at an oral dose of 30 mg/kg relative to that produced by Dexamethasone at a dose of 0.3 mg/kg; format: functional
A549 [8] = assay: Effective concentration for inhibition of interleukin-6 in human A549 lung carcinoma cell line using 60% radiolabeled Dexamethasone; format: functional, cell-based
[9] = molecular target: T2, Mineralocorticoid receptor (Rattus norvegicus, UniProt P22199); assay: Binding affinity for rat mineralocorticoid receptor
T2 sequence (P22199 whole entry): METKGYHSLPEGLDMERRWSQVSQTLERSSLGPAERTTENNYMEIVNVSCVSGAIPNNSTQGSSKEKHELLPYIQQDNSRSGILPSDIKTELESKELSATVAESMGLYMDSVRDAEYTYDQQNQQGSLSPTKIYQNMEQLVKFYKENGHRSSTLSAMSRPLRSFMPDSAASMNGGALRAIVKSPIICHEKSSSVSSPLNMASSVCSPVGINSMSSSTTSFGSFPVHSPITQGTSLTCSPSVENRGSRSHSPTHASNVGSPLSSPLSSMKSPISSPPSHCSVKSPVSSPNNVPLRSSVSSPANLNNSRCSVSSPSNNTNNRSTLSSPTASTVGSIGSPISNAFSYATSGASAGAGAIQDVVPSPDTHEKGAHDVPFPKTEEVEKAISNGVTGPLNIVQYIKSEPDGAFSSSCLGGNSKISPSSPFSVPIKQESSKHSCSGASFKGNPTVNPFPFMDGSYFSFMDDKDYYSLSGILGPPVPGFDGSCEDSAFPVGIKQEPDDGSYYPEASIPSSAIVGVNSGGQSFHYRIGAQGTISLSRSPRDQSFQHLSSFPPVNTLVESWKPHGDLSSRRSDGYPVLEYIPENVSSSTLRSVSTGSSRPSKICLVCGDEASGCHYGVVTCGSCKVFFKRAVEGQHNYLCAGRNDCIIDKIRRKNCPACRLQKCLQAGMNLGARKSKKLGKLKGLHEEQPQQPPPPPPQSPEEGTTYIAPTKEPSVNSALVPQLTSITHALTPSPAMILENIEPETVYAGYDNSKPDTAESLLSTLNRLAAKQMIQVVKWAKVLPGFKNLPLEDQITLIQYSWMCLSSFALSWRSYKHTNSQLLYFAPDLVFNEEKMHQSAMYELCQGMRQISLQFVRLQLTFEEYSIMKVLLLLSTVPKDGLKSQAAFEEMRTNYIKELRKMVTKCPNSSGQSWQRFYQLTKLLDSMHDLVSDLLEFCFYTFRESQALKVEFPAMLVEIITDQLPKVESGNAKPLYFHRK

[10] = Half life time in mouse at 2 mg/kg IV administration; format: ADME, organism-based; design: dose 2 mg/kg, route intravenous; details: in vivo
[11] = Clearance data in mouse at 2 mg/kg IV administration; format: ADME, organism-based; design: dose 2 mg/kg, route intravenous; details: in vivo
Estrogen receptor = molecular target: T3, Estrogen receptor (Homo sapiens, UniProt P03372); assay: Binding affinity for human estrogen receptor alpha
T3 sequence (P03372 whole entry): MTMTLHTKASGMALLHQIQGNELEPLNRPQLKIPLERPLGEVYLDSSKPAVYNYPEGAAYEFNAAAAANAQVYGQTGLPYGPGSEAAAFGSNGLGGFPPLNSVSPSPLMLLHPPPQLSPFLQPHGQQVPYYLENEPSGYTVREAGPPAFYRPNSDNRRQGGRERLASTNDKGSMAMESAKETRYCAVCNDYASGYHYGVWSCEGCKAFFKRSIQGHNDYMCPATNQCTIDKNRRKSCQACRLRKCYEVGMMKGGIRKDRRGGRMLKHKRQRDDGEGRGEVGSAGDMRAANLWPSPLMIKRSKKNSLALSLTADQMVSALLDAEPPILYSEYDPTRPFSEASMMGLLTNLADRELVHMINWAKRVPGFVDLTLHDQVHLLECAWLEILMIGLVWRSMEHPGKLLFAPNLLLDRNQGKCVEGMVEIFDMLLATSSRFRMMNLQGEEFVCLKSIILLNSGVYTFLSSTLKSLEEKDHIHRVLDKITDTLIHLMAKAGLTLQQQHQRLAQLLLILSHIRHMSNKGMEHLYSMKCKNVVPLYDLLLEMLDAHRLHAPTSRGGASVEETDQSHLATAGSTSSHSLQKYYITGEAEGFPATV

Mus musculus [12] = organism: Mus musculus; assay: Effective concentration required for inhibition of interleukin-6 in mouse thioglycolate-elicited peritoneal exudate cell line using 69% radiolabeled Dexamethasone; format: functional
[13] = Volume of distribution in mouse at 2 mg/kg IV administration; format: ADME, organism-based; design: dose 2 mg/kg, route intravenous; details: in vivo, read-out: Volume of distribution
Estrogen receptor beta = Estrogen receptor beta (Homo sapiens, UniProt Q92731); assay: Binding affinity for human estrogen receptor beta
Chain of Estrogen receptor beta (Q92731 whole entry): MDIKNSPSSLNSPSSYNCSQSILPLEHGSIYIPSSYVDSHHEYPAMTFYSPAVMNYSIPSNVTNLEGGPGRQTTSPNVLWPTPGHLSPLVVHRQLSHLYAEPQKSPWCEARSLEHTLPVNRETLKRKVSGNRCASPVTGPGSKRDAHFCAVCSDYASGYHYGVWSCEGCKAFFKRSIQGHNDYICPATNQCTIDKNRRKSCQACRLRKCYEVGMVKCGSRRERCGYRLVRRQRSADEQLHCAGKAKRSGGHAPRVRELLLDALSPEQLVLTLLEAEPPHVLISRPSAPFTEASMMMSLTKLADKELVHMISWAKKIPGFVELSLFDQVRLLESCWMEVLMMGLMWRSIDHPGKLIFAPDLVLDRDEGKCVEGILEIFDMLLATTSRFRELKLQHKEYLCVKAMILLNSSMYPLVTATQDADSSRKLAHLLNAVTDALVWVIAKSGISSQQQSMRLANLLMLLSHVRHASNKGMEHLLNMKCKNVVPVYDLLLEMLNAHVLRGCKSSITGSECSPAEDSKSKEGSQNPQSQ

Mus musculus [14] = organism: Mus musculus; assay: Effective concentration required for interleukin-6 transrepression in peritoneal exudate cells of C57B1/6 mouse using 69% Dexamethasone; format: functional, cell-based
[15] = Bioavailability in mouse (dose 10 mg/kg p.o.); format: ADME, organism-based; details: in vivo, po
Glucocorticoid receptor [16] = molecular target: T1, Glucocorticoid receptor; assay: Binding affinity for human glucocorticoid receptor
A549 [17] = assay: Effective concentration for inhibition of interleukin-6 in human A549 lung carcinoma cell line using 64% radiolabeled Dexamethasone; format: functional, cell-based
Mus musculus [18] = organism: Mus musculus; assay: Effective concentration required for inhibition of interleukin-6 in mouse thioglycolate-elicited peritoneal exudate cell line using 64% radiolabeled Dexamethasone; format: functional
A549 [19] = assay: Effective concentration for inhibition of interleukin-6 in human A549 lung carcinoma cell line using 67% radiolabeled Dexamethasone; format: functional, cell-based
Mus musculus [20] = organism: Mus musculus; assay: Effective concentration required for inhibition of interleukin-6 in mouse thioglycolate-elicited peritoneal exudate cell line using 85% radiolabeled Dexamethasone; format: functional
[21] = Effective concentration required for induction of glutamine synthetase in human skeletal muscle cells using 0% radiolabeled Dexamethasone; format: functional

IC50 (Glucocorticoid receptor [1]): 2.1 nM
EC50 (A549 [2]): 25 nM
EC50 (Mus musculus [3]): 18 nM
SMILES: C[C@@H]1CC(C)(C)O[C@@]2(CCC3=Cc4c(cnn4-c4ccc(F)cc4)C[C@@]32C)O1

EC50 (A549 [4]): 7.5 nM
IC50 (Glucocorticoid receptor [1]): 8.4 nM
EC50 (Mus musculus [5]): 45 nM
SMILES: C[C@@H]1C[C@@H](C)OC2(CCC3=Cc4c(cnn4-c4ccc(F)cc4)C[C@@]32C)O1 (stereo in doubt; form 1)

IC50 (Glucocorticoid receptor [1]): 2.2 nM
EC50 (A549 [6]): 12 nM
SMILES: C[C@@H]1CC(C)(C)O[C@]2(CCC3=Cc4c(cnn4-c4ccc(F)cc4)C[C@@]32C)O1

EC50 (A549 [8]): 13 nM
IC50 [9]: > 10000 nM
half-life [10]: 3 h
IC50 (Glucocorticoid receptor [1]): 7.1 nM
clearance [11]: 118 mL/min/kg
IC50 (Estrogen receptor): > 10000 nM
EC50 (Mus musculus [12]): 54 nM
Vd [13]: 27.2 L/kg
IC50 (Estrogen receptor beta): > 10000 nM
EC50 (Mus musculus [14]): 54 nM
bioavailability [15]: 23%
IC50 (Glucocorticoid receptor [16]): 7.1 nM
SMILES: C[C@H]1C[C@H](C)OC2(CCC3=Cc4c(cnn4-c4ccc(F)cc4)C[C@@]32C)O1 (stereo partly drawn)
Inhibition (Mus musculus [7]): 80.8%

EC50 (A549 [17]): 26 nM
IC50 (Glucocorticoid receptor [1]): 3.1 nM
EC50 (Mus musculus [18]): 19 nM
SMILES: C[C@@H]1C[C@H](C)O[C@@]2(CCC3=Cc4c(cnn4-c4ccc(F)cc4)C[C@@]32C)O1

SMILES: C[C@]12Cc3cnn(-c4ccc(F)cc4)c3C=C1CCC21O[C@H](c2ccccc2)[C@@H](c2ccccc2)O1
EC50 (A549 [19]): 10 nM
IC50 (Glucocorticoid receptor [1]): 10 nM
EC50 (Mus musculus [20]): 60 nM
EC50 [21]: 10 nM
